Test results from patent US11999704B1, “1-(2-hydroxybenzylideneamino)-5-phenylimidazolidine-2,4-dione as an antimicrobial compound” (KING FAISAL UNIVERSITY, priority 2023, dated 2024).

What was measured:
Bacillus Cereus = test: Agar plate disc-diffusion, antibacterial activity (inhibition zone); format: cell-based; conditions: nutrient agar, 37° C., 48 hours, DMSO zone subtracted; for inhibition zone, Bacillus Cereus, B: B = concentration of comp. = 30.000 μL; for inhibition zone, Bacillus Cereus, C: C = concentration of comp. = 50,000 μL
Experimental: (§1) The agar plate disc-diffusion method was applied. Sterilized filter papers (6 mm in diameter) were wetted with 10 μL of a solution of 1-(2-hydroxybenzylideneamino)-5-phenylimidazolidine-2,4-dione (4) to be tested, containing 10 mg/mL in DMSO, and the discs were allowed to air dry. The discs were then placed onto the surface of agar plates (nutrient agar for bacteria and Sabouraud's dextrose agar for fungi) seeded with the test organism. Each plate contained 15 mL of the agar medium, previously seeded with 0.2 mL of the broth culture of each organism pregrown for 18 hours. The plates were incubated at 37° C. for 48 hours, and 72 hours for fungi. The inhibition zones was measured in millimeter. Discs impregnated with DMSO were used as a control, and its inhibition zone was subtracted from the tested compound actual inhibition zone.
(§2) The results of the antimicrobial testing can be observed in Tables 1 and 2, below, with ciprofloxacin serving as a reference.

Escherichia coli = test: as above; format: cell-based; conditions: nutrient agar, 37° C., 48 hours, DMSO zone subtracted; for inhibition zone, Escherichia coli, A: A = concentration of comp. = 10,000 μL; for inhibition zone, Escherichia coli, B: B = concentration of comp. = 30.000 μL; for inhibition zone, Escherichia coli, C: C = concentration of comp. = 50,000 μL
Experimental: as §1, §2

Pseudomonas aeruginosa = test: as above; format: cell-based; conditions: nutrient agar, 37° C., 48 hours, DMSO zone subtracted; for inhibition zone, Pseudomonas aeruginosa, A: A = concentration of comp. = 10,000 μL; for inhibition zone, Pseudomonas aeruginosa, B: B = concentration of comp. = 30.000 μL; for inhibition zone, Pseudomonas aeruginosa, C: C = concentration of comp. = 50,000 μL
Experimental: as §1, §2

Staphylococcus aureus = test: as above; format: cell-based; conditions: nutrient agar, 37° C., 48 hours, DMSO zone subtracted; for inhibition zone, Staphylococcus aureus, A: A = concentration of comp. = 10,000 μL; for inhibition zone, Staphylococcus aureus, B: B = concentration of comp. = 30.000 μL; for inhibition zone, Staphylococcus aureus, C: C = concentration of comp. = 50,000 μL
Experimental: as §1, §2

Aspergillus flavus = test: Agar plate disc-diffusion, antifungal activity (inhibition zone); format: cell-based; conditions: Sabouraud's dextrose agar, 37° C., 72 hours, DMSO zone subtracted; for inhibition zone, Aspergillus flavus, A: A = concentration of comp. = 10,000 μL; for inhibition zone, Aspergillus flavus, B: B = concentration of comp. = 30.000 μL; for inhibition zone, Aspergillus flavus, C: C = concentration of comp. = 50,000 μL
Experimental: as §1, §2

[1] = test system: Chrysosporium keratinophilum; test: as above; format: cell-based; conditions: Sabouraud's dextrose agar, 37° C., 72 hours, DMSO zone subtracted; for inhibition zone, Chrysosporium keratinophilum, A: A = concentration of comp. = 10,000 μL; for inhibition zone, Chrysosporium keratinophilum, B: B = concentration of comp. = 30.000 μL; for inhibition zone, Chrysosporium keratinophilum, C: C = concentration of comp. = 50,000 μL
Experimental: as §1, §2

melting point	Compound	inhibition zone, Bacillus Cereus, A (Bacillus Cereus)	inhibition zone, Bacillus Cereus, B (Bacillus Cereus)	inhibition zone, Bacillus Cereus, C (Bacillus Cereus)	inhibition zone, Escherichia coli, A (Escherichia coli)	inhibition zone, Escherichia coli, B (Escherichia coli)	inhibition zone, Escherichia coli, C (Escherichia coli)	inhibition zone, Pseudomonas aeruginosa, A (Pseudomonas aeruginosa)	inhibition zone, Pseudomonas aeruginosa, B (Pseudomonas aeruginosa)	inhibition zone, Pseudomonas aeruginosa, C (Pseudomonas aeruginosa)	inhibition zone, Staphylococcus aureus, A (Staphylococcus aureus)	inhibition zone, Staphylococcus aureus, B (Staphylococcus aureus)	inhibition zone, Staphylococcus aureus, C (Staphylococcus aureus)	inhibition zone, Aspergillus flavus, A (Aspergillus flavus)	inhibition zone, Aspergillus flavus, B (Aspergillus flavus)	inhibition zone, Aspergillus flavus, C (Aspergillus flavus)	inhibition zone, Chrysosporium keratinophilum, A [1]	inhibition zone, Chrysosporium keratinophilum, B [1]	inhibition zone, Chrysosporium keratinophilum, C [1]
–	O=C(O)c1cn(C2CC2)c2cc(N3CCNCC3)c(F)cc2c1=O [Cip., ciprofloxacin, reference compound]	29 millimeter	30 millimeter	42 millimeter	30 millimeter	39 millimeter	60 millimeter	29 millimeter	30 millimeter	53 millimeter	43 millimeter	44 millimeter	53 millimeter	29 millimeter	30 millimeter	42 millimeter	29 millimeter	30 millimeter	53 millimeter
161 to 163 °C	O=C1NC(=O)N(/N=C/c2ccccc2O)C1c1ccccc1 (stereo not shown) [Compound 4, 1-(2-hydroxybenzylideneamino)-5-phenylimidazolidine-2,4-dione]	23 millimeter	27 millimeter	35 millimeter	27 millimeter	36 millimeter	49 millimeter	20 millimeter	26 millimeter	37 millimeter	15 millimeter	19 millimeter	27 millimeter	24 millimeter	28 millimeter	38 millimeter	27 millimeter	29 millimeter	48 millimeter
